Experimental data published in patent publication US10179771B2 (GALAPAGOS NV, priority 2014, dated 2019).

Molecular target: T1, Recombinant human JAK1 catalytic domain (Homo sapiens, UniProt P23458)
T1 construct: Recombinant human JAK1 (catalytic domain, amino acids 866-1154; catalog number PV4774); purchased Invitrogen PV4774
Test: JAK1 inhibition assay (polyGT substrate / Ulight-JAK1 peptide assay)
Type: biochemical
Conditions: Comparative Compounds (Table VI)
Description: Recombinant human JAK1 catalytic domain (amino acids 850-1154; catalog number 08-144) was purchased from Carna Biosciences. 10 ng of JAK1 is incubated with 12.5 μg polyGT substrate (Sigma catalog number P0275) in kinase reaction buffer (15 mM Tris-HCl pH 7.5, 1 mM DTT, 0.01% Tween-20, 10 mM MgCl2, 2 μM non-radioactive ATP, 0.25 ρCi ^33P-gamma-ATP (GE Healthcare, catalog number AH9968) final concentrations) with or without 5 μL containing test compound or vehicle (DMSO, 1% final concentration), in a total volume of 25 μL, in a polypropylene 96-well plate (Greiner, V-bottom). After 45 min at 30° C., reactions are stopped by adding of 25 μL/well of 150 mM phosphoric acid. All of the terminated kinase reaction is transferred to prewashed (75 mM phosphoric acid) 96 well filter plates (Perkin Elmer catalog number 6005177) using a cell harvester (Perkin Elmer). Plates are washed 6 times with 300 μL per well of a 75 mM phosphoric acid solution and the bottom of the plates is sealed. 40 μL/well of Microscint-20 is added, the top of the plates is sealed and readout is performed using the Topcount (Perkin Elmer). Kinase activity is calculated by subtracting counts per min (cpm) obtained in the presence of a positive control inhibitor (10 μM staurosporine) from cpm obtained in the presence of vehicle. The ability of a test compound to inhibit this activity is determined as:
[formula] • RFU test compound=RFU determined for sample with test compound present • RFU control=RFU determined for sample with positive control inhibitor • RFU vehicle=RFU determined in the presence of vehicle
Dose dilution series are prepared for the compounds enabling the testing of dose-response effects in the JAK1 assay and the calculation of the IC50 for each compound. Each compound is routinely tested at concentration of 20 μM followed by a 1/3 serial dilution, 8 points (20 μM-6.67 μM-2.22 μM-740 nM-247 nM-82 nM-27 nM-9 nM) in a final concentration of 1% DMSO. When potency of compound series increased, more dilutions are prepared and/or the top concentration was lowered (e.g. 5 μM, 1 μM).
Recombinant human JAK1 (catalytic domain, amino acids 866-1154; catalog number PV4774) was purchased from Invitrogen. 1 ng of JAK1 was incubated with 20 nM Ulight-JAK1 (tyr1023) peptide (Perkin Elmer catalog number TRF0121) in kinase reaction buffer (25 mM MOPS pH6.8, 0.01% Brij-35, 5 mM MgCl2, 2 mM DTT, 7 μM ATP) with or without 4 μL containing test compound or vehicle (DMSO, 1% final concentration), in a total volume of 20 μL, in a white 384 Opti plate (Perkin Elmer, catalog number 6007290). After 60 min at room temperature, reactions were stopped by adding 20 μL/well of detection mixture (1× detection buffer (Perkin Elmer, catalog number CR97-100C), 0.5 nM Europium-anti-phosphotyrosine (PT66) (Perkin Elmer, catalog number AD0068), 10 mM EDTA). Readout is performed using the Envision with excitation at 320 nm and measuring emission at 615 nm (Perkin Elmer). Kinase activity was calculated by subtracting relative fluorescence units (RFU) obtained in the presence of a positive control inhibitor (10 μM staurosporine) from RFU obtained in the presence of vehicle. The ability of a test compound to inhibit this activity was determined as: Percentage inhibition=((RFU determined for sample with test compound present−RFU determined for sample with positive control inhibitor) divided by (RFU determined in the presence of vehicle−RFU determined for sample with positive control inhibitor))*100.
Dose dilution series were prepared for the compounds enabling the testing of dose-response effects in the JAK1 assay and the calculation of the IC50 for the compound. Each compound is routinely tested at concentration of 20 μM followed by a 1/5 serial dilution, 10 points in a final concentration of 1% DMSO. When potency of compound series increases, more dilutions are prepared and/or the top concentration are lowered (e.g. 5 μM, 1 μM). […]

T1 sequence (P23458 866-1154): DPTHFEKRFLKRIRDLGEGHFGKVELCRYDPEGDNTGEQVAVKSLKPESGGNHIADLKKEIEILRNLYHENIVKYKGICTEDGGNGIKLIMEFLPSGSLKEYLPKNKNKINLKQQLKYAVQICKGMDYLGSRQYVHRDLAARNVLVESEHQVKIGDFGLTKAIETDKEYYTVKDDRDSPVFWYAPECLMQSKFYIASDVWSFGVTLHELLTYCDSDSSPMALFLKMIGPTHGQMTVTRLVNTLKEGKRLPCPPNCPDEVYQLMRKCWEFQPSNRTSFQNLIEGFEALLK

Q: With CN(c1cc2c(cn1)ncn2C)c1ccc(C#N)cc1F [D, reference compound] as the compound, how does the IC50 read?
A: > 500 nM

Same assay, conditions: Illustrative Compounds of the invention (Table V)

Q: How did the IC50 turn out when CCc1cc(C(N)=O)ncc1N(C)c1cc(NC(=O)[C@H]2C[C@H]2F)c2ncn(C)c2c1 [Cpd 25, 4-ethyl-5-((4-((1R,2R)-2-fluorocyclopropanecarboxamido)-1-methyl-1H-benzo[d]imidazol-6-yl)(methyl)amino)picolinamide] was run?
A: 0.1 to 50 nM

Q: With Cc1cc(S(C)(=O)=O)ccc1N(C)c1cc(NC(=O)[C@H]2C[C@H]2F)c2ncn(C)c2c1 [Cpd 26, (1R,2R)-N-[6-(N,2-dimethyl-4-methylsulfonyl-anilino)-1-methyl-benzimidazol-4-yl]-2-fluoro-cyclopropanecarboxamide] as the compound, how does the IC50 read?
A: 0.1 to 50 nM

Q: CCS(=O)(=O)c1ccc(N(C)c2cc(NC(=O)[C@H]3C[C@H]3F)c3ncn(C)c3c2)c(C)c1 [Cpd 27, (1R,2R)-N-[6-(4-ethylsulfonyl-N,2-dimethyl-anilino)-1-methyl-benzimidazol-4-yl]-2-fluoro-cyclopropanecarboxamide] was tested. Which IC50 did it give?
A: 0.1 to 50 nM

Q: With Cc1cc(C#N)ncc1Oc1cc(N)c2ncn(C)c2c1 [Cpd 28, 5-(7-amino-3-methyl-benzimidazol-5-yl)oxy-4-methyl-pyridine-2-carbonitrile] as the compound, how does the IC50 read?
A: 50 to 100 nM

Q: How did the IC50 turn out when CCc1cc(S(C)(=O)=O)ncc1Oc1cc(NC(=O)C2CC2)c2ncn(C)c2c1 [Cpd 29, N-[6-[(4-ethyl-6-methylsulfonyl-3-pyridyl)oxy]-1-methyl-benzimidazol-4-yl]cyclopropanecarboxamide] was run?
A: 0.1 to 50 nM

Q: For Cc1cc(C(N)=O)ncc1Oc1cc(NC(=O)[C@H]2C[C@H]2F)c2ncn(C)c2c1 [Cpd 32, 5-[7-[[(1R,2R)-2-fluorocyclopropanecarbonyl]amino]-3-methyl-benzimidazol-5-yl]oxy-4-methyl-pyridine-2-carboxamide], which IC50 is on record?
A: 50 to 100 nM

Q: How did the IC50 turn out when CNc1cc(Oc2cnc(C#N)cc2C)cc2c1ncn2C [Cpd 34, 4-methyl-5-[3-methyl-7-(methylamino)benzimidazol-5-yl]oxy-pyridine-2-carbonitrile] was run?
A: 100 to 500 nM

Q: Cc1cc(C#N)ncc1Oc1cc(N(C)C)c2ncn(C)c2c1 [Cpd 35, 5-[7-(dimethylamino)-3-methyl-benzimidazol-5-yl]oxy-4-methyl-pyridine-2-carbonitrile] was tested. Which IC50 did it give?
A: > 500 nM

Q: For Cc1cc(C#N)ncc1Oc1cc(NC(=O)N2CC(O)C2)c2ncn(C)c2c1 [Cpd 36, N-[6-[(6-cyano-4-methyl-3-pyridyl)oxy]-1-methyl-benzimidazol-4-yl]-3-hydroxy-azetidine-1-carboxamide], which IC50 is on record?
A: > 500 nM

Q: For Cc1cc(C#N)ncc1Oc1cc(NC(=O)N2CCOCC2)c2ncn(C)c2c1 [Cpd 37, N-[6-[(6-cyano-4-methyl-3-pyridyl)oxy]-1-methyl-benzimidazol-4-yl]morpholine-4-carboxamide], which IC50 is on record?
A: > 500 nM

Q: Which IC50 does the source give for Cc1cc(C#N)ncc1Oc1cc(NC(=O)NC(C)C)c2ncn(C)c2c1 [Cpd 38, 1-[6-[(6-cyano-4-methyl-3-pyridyl)oxy]-1-methyl-benzimidazol-4-yl]-3-isopropyl-urea] here?
A: 0.1 to 50 nM
